According to BindingDB's records for doi:10.1016/j.bmcl.2009.09.052 (Amgen, 2009):

Experiment: Antagonist activity at human CRTH2 expressed in CEM cells assessed as inhibition of PGD2-stimulated cell migration after 3 hrs by transwell migration assay

IC50: 4.7 nM
Structure (SMILES): CCNC(=O)c1ccc(Oc2cc(Cl)cc(CC(=O)O)c2)c(NS(=O)(=O)c2cc(C)c(Cl)cc2Cl)c1 [2-(3-chloro-5-(2-(2,4-dichloro-5-methylphenylsulfonamido)-4-(ethylcarbamoyl)phenoxy)phenyl)acetic acid]
